Reference: patent US11116784B2, “Niacinamide (NAM) in ischemic tissue injury” (Beth Israel Deaconess Medical Center, Inc., priority 2016, dated 2021)
“Also recorded” adds a separate entry of the source.

Key:
[1] = system: explanted kidneys; experiment: NAD in explanted kidneys stored in UW Belzer preservation solution; set-up: species or system mouse; conditions: 5 μM P7C3 in ice-cold UW Belzer solution, 16 hours, vs UW Belzer alone
Experimental: (§1) A, To mimic donor organ harvest, deeply anesthetized mice were flushed intravascularly with ice-cold UW Belzer solution, then placed into ice cold solutions of UW-Belzer with or without 5 μM of P7C3, NAMPT agonist. After 16 hours for the explanted kidneys, organs were analyzed for levels of NAD (pg/μg of protein). B, To mimic donor organ harvest, deeply anesthetized mice were flushed intravascularly with ice-cold UW Belzer solution, then placed into ice cold solutions of UW-Belzer with or without 500 μM, 1 mM or 10 mM Nam. After 3 hours for the explanted hearts, organs were analyzed for levels of NAD (pg/μg of protein). C, NAMPT is the rate-limiting enzyme for the conversion of Nam to NAD via the intermediate NMN (nicotinamide mononucleotide).
(§2) To further expand upon the results from the retrospective cohort of patient study, the conditions of donor organ harvest were mimicked using mice in hopes of improving post-implantation graft performance (FIG. 23). In this experiment, kidney and heart were harvested and Nam or P7C3, a NAMPT agonist, were added to the preservation solution. Upon incubation of kidney with P7C3 in the preservation solution, NAD levels increased as compared to kidney incubated with the UW Belzer solution alone (FIG. 23A). […]

[2] = system: renal tubular cells (IMCD3); experiment: PGE2 in conditioned media of renal tubular cells; type: cell-based, mouse
Experimental: Mouse intermedullary collecting duct (IMCD3) cells were obtained from ATCC. […] Cells were transfected with siRNA targeting mouse PGC1, HCAR2 or a negative control siRNA (Qiagen) for 24 h. Niacin, mepenzolate bromide, β-hydroxybutyrate, the NAMPT inhibitor FK866 ([…] et al. Cancer research 2003; 63, 7436-7442), and niacinamide were diluted to the indicated concentrations in serum-free cell culture medium. Prostaglandin E2 (PGE2) was measured in the conditioned media 24-72 hours after treatment.

[3] = system: iNephPGC1α mice; experiment: Renal IRI in iNephPGC1α mice with inhibition of β-OHB signaling or prostaglandin synthesis; type: in vivo, mouse; conditions: 10 mg/kg IP one hour prior to IRI
Experimental: (§3) Renal ischemia-reperfusion injury (IRI) was performed on 8-12 week-old males through two small paramedial dorsal incisions by applying a microvascular clamp to each renal pedicle for 20 minutes. Mice were anesthetized with isoflurane for the duration of surgery and warmed to 37° C. using a servo-controlled heating pad. Incisions were closed in two layers and mice were revived with 1 ml warm saline injected intraperitoneally.
(§4) All chemicals were purchased from Sigma-Aldrich unless otherwise noted. Niacinamide was given by intraperitoneal injection of 400 mg/kg/day×4 days in saline, with the final dose an hour prior to IRI surgery. In rescue experiments, the same dose was administered once 18 hours after reperfusion. Indomethacin was given by intraperitoneal injection of 10 mg/kg in 0.1 M sodium carbonate/saline an hour prior to IRI. […]
(§5) All measurements were performed in a blinded fashion by an independent facility. Creatinine was analyzed by LC/MS-MS at the University of Alabama Birmingham O'Brien Core Center for Acute Kidney Injury Research (NIH P30-DK079337). […]

[4] = system: PGC1α^−/− animals; experiment: Intracardiac lipids after Nam; type: in vivo, mouse; conditions: Nam 400 mg/kg IP
[5] = system: healthy 8-12 wk old male mice; experiment: Renal blood flow by Doppler ultrasound in healthy mice; type: in vivo, mouse; conditions: Nam 400 mg/kg intraperitoneal x 1; 4 h after injection vs pre-Nam
Excerpt: The full method is previously described (Tran et al. J Clin Invest 2011; 121, 4003-4014). Briefly, mice were lightly anesthetized, secured to a heat-controlled stage, and continuously monitored for respiration, ECG, and core temperature. A high frequency, high resolution digital imaging platform with linear array technology and equipped with a high-frequency linear array probe MS550D (22-55 MHz) was used throughout the study (Vevo 2100 Visual Sonics). The flow volume was modeled as a circular cylinder of length equal to the average velocity time integral and diameter measured empirically (n=3 cardiac cycles), then multiplied by the heart rate (bpm), then converted from mm^3/min to ml/min. All measurements and analyses were performed by a single blinded operator (EVK).

[6] = system: mice; experiment: Renal NAD and β-OHB after exogenous Nam in mice; type: in vivo, mouse
Experimental: All chemicals were purchased from Sigma-Aldrich unless otherwise noted. Niacinamide was given by intraperitoneal injection of 400 mg/kg/day×4 days in saline, with the final dose an hour prior to IRI surgery. In rescue experiments, the same dose was administered once 18 hours after reperfusion. Indomethacin was given by intraperitoneal injection of 10 mg/kg in 0.1 M sodium carbonate/saline an hour prior to IRI. […] In brief, amino acids, amines, acylcarnitines, nucleotides, and other cationic polar metabolites were measured in 10 μl of kidney homogenate using hydrophilic interaction liquid chromatography coupled with nontargeted, positive ion mode MS analysis on an Exactive Plus Orbitrap MS (Thermo Scientific). Polar and non-polar lipids were measured in 10 μl of kidney homogenate using C8 chromatography and nontargeted, positive ion mode MS analysis on a Q Exactive MS (Thermo Scientific). […] Results were analyzed in MetaboAnalyst (Xia et al., Nucleic Acids Res. 40 (Web Server issue): […]-33 (2012)). PGE2 was measured in mouse kidney tissue by ELISA (Cayman Chemical). β-OHB (Cayman Chemical) and total NAD (BioVision) was measured in mouse kidney tissue by colorimetric assays. […]

[7] = system: mice with established AKI; experiment: Nam rescue of established ischemic AKI (single dose 18 h after reperfusion); type: in vivo, mouse; conditions: Nam 400 mg/kg IP x 1, 18 h after onset of reperfusion
Experimental: as §3, §4, §5

[8] = system: explanted hearts; experiment: NAD in explanted hearts stored in UW Belzer preservation solution; set-up: species or system mouse; conditions: 500 μM, 1 mM or 10 mM Nam in ice-cold UW Belzer solution, 3 hours, vs UW Belzer alone
Experimental: as §1, §2

[9] = system: PGC1α KO mice; experiment: Cardiac IRI with pressure volume loops in PGC1α KO mice; type: in vivo, mouse; conditions: Nam 400 mg/kg IP, one dose before IRI, two after; 2 weeks after 45 min coronary occlusion
Experimental: For cardiac IRI surgery, mice were anesthetized, intubated, and placed on a rodent ventilator. After thoracotomy, the left anterior descending artery was identified and ligated with a 7-0 silk suture tied around a specialized 30 gauge catheter. The animal remained under anesthesia and ventilation for 45 minutes of ischemia. Reperfusio was achieved by cutting the suture and re-establishing arterial perfusion. The thoracotomy was then sutured closed and animals recovered with warmed saline injected intraperitoneally.
Pressure volume loops were performed to assess cardiac parameters. Cardiac function was measured in mice using the left ventricle (LV) pressure-volume and echocardiography 2 weeks after cardiac IRI or sham control procedure. After 2% isolfurane inhalant anesthesia, the pressure-volume parameters were measured using a 1.4 French microtip pressure-volume catheter. The catheter was first inserted into the right common carotid artery and then gently advanced into the LV to obtain LV hemodynamic measurements. Data were recorded using a Powerlab system. Beat-by-beat pressure-volume parameters including heart rate, stroke volume, stroke work, and cardiac output were measured and analyzed using Cardiosoft Pro software. […] Two-dimensional guided M-mode images were recorded. […]

[10] = system: PGC1α^−/− mice; experiment: Renal ischemia-reperfusion injury (IRI) in PGC1α−/− mice with Nam pretreatment; type: in vivo, mouse
Experimental: as §3, §4, §5
For metabolomics measurements, snap frozen kidneys were cut to equal weights (20 mg/specimen) and mechanically homogenized into 4 volumes of ice-cold water. […] In brief, amino acids, amines, acylcarnitines, nucleotides, and other cationic polar metabolites were measured in 10 μl of kidney homogenate using hydrophilic interaction liquid chromatography coupled with nontargeted, positive ion mode MS analysis on an Exactive Plus Orbitrap MS (Thermo Scientific). Polar and non-polar lipids were measured in 10 μl of kidney homogenate using C8 chromatography and nontargeted, positive ion mode MS analysis on a Q Exactive MS (Thermo Scientific). […] Results were analyzed in MetaboAnalyst (Xia et al., Nucleic Acids Res. 40 (Web Server issue): W127-33 (2012)). […]

[11] = system: mice; experiment: Cisplatin nephrotoxicity model; type: in vivo, mouse; conditions: cisplatin 25 mg/kg IP day 0; Nam 400 mg/kg IP on day −1 and day 0
Excerpt: All chemicals were purchased from Sigma-Aldrich unless otherwise noted.

[12] = system: NNMT in cultured renal tubular cells (IMCD3); conditions: 24 hr exposure to 1-Me-Nam
Experimental: LC-MS assays were developed for multiplex quantification of Nam, NAD, and β-hydroxybutyrate (β-OHB) from cellular experiments. NAD measurements reflect total NAD^+ plus NADH. Briefly, conditioned medium was extracted with methanol (80% methanol final concentration) spiked with isotopic standards for Nam and β-OHB (CDN Isotopes, Inc.). Precipitated proteins were removed by centrifugation, and supernatants were analyzed directly. For analysis of cell lysates, cells were washed with ice-cold PBS, scraped and lysed on dry ice into methanol containing isotopic standards. After extraction, cell and media supernatants were analyzed by LC-MS/MS using reverse-phase chromatography (NAM and NAD/NADH) or hydrophilic interaction chromatography (β-OHB) coupled to tandem mass spectrometry using an API 5000 triple quadruple mass spectrometer. Analytes were quantified by multiple reaction monitoring using the following m/z transitions: β-OHB 103.1>59, β-OHB IS 105.1>60, NAM 123.3>80.2, NAM IS 127.3>84.2, NAD/NADH 664.2>542.0. Eluting peaks were quantified by area under the curve (AUC).
Mouse intermedullary collecting duct (IMCD3) cells were obtained from ATCC. […] Cells were transfected with siRNA targeting mouse PGC1, HCAR2 or a negative control siRNA (Qiagen) for 24 h. […] Prostaglandin E2 (PGE2) was measured in the conditioned media 24-72 hours after treatment.

OC(CNc1ccccc1)Cn1c2ccc(Br)cc2c2cc(Br)ccc21 (stereo not shown) [P7C3]
NAD levels in explanted kidneys [1]: increased; also recorded: can boost NAD levels

CC(O)CC(=O)O (stereo not drawn) [β-OHB, beta-hydroxybutyrate]
PGE2 secretion in PGC1α-silenced cells ([2]; exogenous β-OHB 5 mM, p<0.0001): still able to induce PGE2 secretion

C[N+]1(C)CCCC(OC(=O)C(O)(c2ccccc2)c2ccccc2)C1 (stereo not shown) [mepenzolate bromide]
renal protection (serum creatinine 24 h after IRI) [3]: abolished

NC(=O)c1cccnc1 [Nam, niacinamide]
intracardiac di- and tri-acylglycerols (DAG, TAG) [4]: decline markedly
intracardiac phospholipids [4]: largely unaltered
PGE2 secretion ([2]; Nam 1 μM for 24 h): augmented
renal blood flow [5]: improved
renal NAD ([6]; 4 h after a single IP Nam dose (100-400 mg/kg)): dose-dependently increased; also recorded: can increase renal NAD levels
renal β-OHB accumulation relative to normal circulating concentrations ([6]; Nam 400 mg/kg IP x 4 d, p<0.0001): ten-fold
renal function (serial serum creatinine) in established AKI [7]: significantly improved; also recorded: attenuated; also recorded: rapidly improved
NAD levels in explanted hearts [8]: increased; also recorded: can boost NAD levels
contraction (dP/dt max) [9]: improved
relaxation (dP/dt min) [9]: improved
renal Nam ([10]; Nam 400 mg/kg IP x 4 d, with and without IRI 24 h before tissue collection, p<0.001): increased
post-ischemic fat accumulation (Oil Red O) ([10]; Nam pretreatment 400 mg/kg IP x 4 d, 24 h after IRI): normalized
post-ischemic AKI (serum creatinine) ([10]; PGC1α−/− mice, Nam 400 mg/kg/day IP x 4 d, last dose 1 h before IRI): completely prevented
cisplatin-induced AKI (serial serum creatinine) [11]: prevented

C[n+]1cccc(C(N)=O)c1 [1-Me-Nam, 1-methyl-niacinamide]
NAD in IMCD3 cells [12]: dose-dependent induction of NAD

COc1ccc2c(c1)c(CC(=O)O)c(C)n2C(=O)c1ccc(Cl)cc1 [indomethacin]
renal protection (serum creatinine 24 h after IRI) [3]: abolished
